Paper PMC9450014, “The evaluation of ADME and pharmacokinetic properties of decoquinate derivatives for the treatment of malaria” (Frontiers in Pharmacology, 2022)
Values joined by “and” are separate entries in the source; they are usually repeats but may differ in a detail not shown here. Equal values may be shown once. Read-outs that look alike come from different tables or passages of the source.

Assays:
[1] = Kinetic solubility in PBS (HPLC-DAD); format: physicochemical; settings: phosphate buffer saline (PBS); for solubility kinetic at 2 h: aqueous buffer, kinetic from dmso stock
Description: Stock concentrations of test samples (10 mM) were prepared in DMSO and diluted to a final concentration of […] in phosphate buffer saline (PBS) solutions at pH 2, 6.5, and 7.4 in flat-bottomed 96-well plates. A three-point calibration curve of each control and test compound was prepared from stock solutions in DMSO. Plates were agitated on an orbital shaker at room temperature for 2 h at 200 rpm and subsequently analysed using a reverse phase Gemini NX-C18 column (5 μM, 2.1 mm × 50 mm) with an Agilent 1,200 Rapid Resolution HPLC and diode array detection.

Plasma stability = format: in vitro ADME; settings: human plasma
Description: Stock solutions of compounds in DMSO were used to spike pooled human plasma. Samples were transferred in duplicate to 6 different wells of a 96-deep well plate. An aliquot of each sample was immediately quenched with ice cold acetonitrile containing the internal standard carbamazepine (0.1 μM), after which the plate was incubated in a water bath (37°C for 1 h). Aliquots of samples were removed at 5, 15, 40, 60, and 180 min and quenched with ice cold acetonitrile. After samples of the final time point were precipitated, the supernatant was transferred to a round bottom 96-well plate for analysis by LC-MS/MS using a reverse phase Gemini NX-C18 column (5 μM, 2.1 mm × 50 mm) with a Shimadzu HPLC coupled with an AB Sciex 3200 Q TRAP MS). The peak area ratios were used to calculate the amount of parent compound remaining and t1/2 in plasma, using the following equations.
% Parent remaining % Parent= Normalised peak area of sample at timepoint/Normalised peak area of sample at t=0 x 100
Predicted t1/2 t1/2= −0.693/λ Where λ is the slope of the Ln % parent remaining vs. time curve.

[2] = In vivo pharmacokinetics, oral administration; parameters: species or system C57BL/6 mice; settings: mice
Description: Healthy C57BL/6 mice each weighing approximately 25 g were maintained at the University of Cape Town animal facility. Mice were housed in 27 × 21 × 28 cm cages (n = 3) under controlled environmental conditions at 22 ± 2°C, humidity of 55 ± 15% and a 12-hour light/dark cycle. Food and water were available ad libitum. Mice were acclimatised to the experimental environment for 4–5 days prior to initiating the experiments. RMB005, −059 and −060 were prepared in an aqueous solution of HPMC containing 0.2% Tween 80. The weighed compound was sonicated and vortexed to obtain a homogenous suspension. Oral dosing of 20 mg/kg was achieved via oral gavage. The total volume per administration was 200 μL. Blood samples were collected post-dose in lithium heparin microvials via tail bleeding at predetermined intervals at 0.5, 1, 3, 5, 8, 10, and 24 h. Samples were gently vortexed and stored at −80°C until analysis. A quantitative LC-MS/MS assay was used to determine whole-blood concentrations of RMB005, −059 and −060. Whole blood samples (20 μL) were treated with 100 μL ice cold acetonitrile containing the compound RMB073 used previously for determination of whole blood concentrations in analysis of TB-active compounds, as internal standard (200 ng/ml) ([Tanner et al., 2019]). The mixture was vortexed vigorously for 1 min, and 5 µL of the supernatant were injected onto the analytical column following centrifugation (5,590 g for 5 min). Gradient elution was carried out using a Gemini NX-C18 analytical column (5 μm, 2.1 mm × 50 mm). The aqueous mobile phase consisted of 5 mm ammonium acetate with 0.1% acetic acid in deionised water, while the organic phase consisted of 0.1% acetic acid in acetonitrile. A Shimadzu HPLC and reverse phase Gemini NX-C18 column coupled to an AB Sciex 3200 Q TRAP MS was operated at unit resolution in the multiple reaction monitoring (MRM) mode. […] The calibration standards ranged from 2 ng/mL to 3,000 ng/mL for RMB005, and 2 ng/mL to 4,000 ng/mL for RMB059, −060 and DQ. Drug concentration versus time plots for each compound were used to determine maximal drug concentration C max, time T max to reach C max, elimination half-life t 1/2 and the area under the concentration-time curve from time zero to infinity, AUC0-inf. From these values the following PK parameters—clearance CL, volume of distribution (Vd) and oral bioavailability (BA) were determined using the non-compartmental analysis Microsoft Excel Add-In PKSolver ([Zhang et al., 2010]).

[3] = tested on: multidrug resistant Pf K1; parameters: method as in Beteck et al., 2018; settings: ref Beteck et al., 2018; read-out: IC50 against multidrug resistant Pf K1; cited from earlier work

solubility kinetic at 2 h ([1]; PBS pH 2, read-out: Kinetic solubility pH 2): < 5 µM
solubility kinetic at 2 h ([1]; PBS pH 6.5, read-out: Kinetic solubility pH 6.5): < 5 µM
solubility kinetic at 2 h ([1]; PBS pH 7.4, read-out: Kinetic solubility pH 7.4): < 5 µM
solubility at 2 h ([1]; all pH levels tested (pH 2, 6.5, 7.4)): < 5 µM
Plasma stability (in words) (Plasma stability): good plasma stability
Plasma stability (in words) (Plasma stability; listed as RMB-005): relatively stable
half-life (Plasma stability; pooled plasma, 37°C): > 150 min
Tmax ([2]; C57BL/6, mouse, whole blood, po, 20 mg/kg, po 20 mg/kg, dosed compound measured): ~42 min
Cmax ([2]; C57BL/6, mouse, po 20 mg/kg, whole blood, dosed compound measured, read-out: Cmax): 490 ± 20 nM
BA ([2]; po 20 mg/kg vs iv, 20 mg/kg): 4% and 4 ± 0.3%
AUC0-∞ ([2]; po 20 mg/kg, whole blood, dosed compound measured, 20 mg/kg): 59 µmol·min/L and 59 ± 2 µmol·min/L
Structure (SMILES): CCCCCCCCCCOc1cc2c(=O)c(C(=O)NCCOCCO)c[nH]c2cc1OCC [RMB005]
IC50 [3]: 64.8 nM
